From publication PMC9599461, “Stereoselectivity in the Membrane Transport of Phenylethylamine Derivatives by Human Monoamine Transporters and Organic Cation Transporters 1, 2, and 3” (Biomolecules, 2022)
Read-outs that look alike come from different tables or passages of the source. Marks after values point to notes of the source that are not given here.

Assays:
[1] = target: T1, SERT (Homo sapiens, UniProt P31645);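 further: uptake into HEK293 cells stably expressing human SERT over 2 min, enantiomers measured in cell lysate by chiral HPLC-MS/MS, normalized to total protein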
T1 sequence (P31645 whole entry): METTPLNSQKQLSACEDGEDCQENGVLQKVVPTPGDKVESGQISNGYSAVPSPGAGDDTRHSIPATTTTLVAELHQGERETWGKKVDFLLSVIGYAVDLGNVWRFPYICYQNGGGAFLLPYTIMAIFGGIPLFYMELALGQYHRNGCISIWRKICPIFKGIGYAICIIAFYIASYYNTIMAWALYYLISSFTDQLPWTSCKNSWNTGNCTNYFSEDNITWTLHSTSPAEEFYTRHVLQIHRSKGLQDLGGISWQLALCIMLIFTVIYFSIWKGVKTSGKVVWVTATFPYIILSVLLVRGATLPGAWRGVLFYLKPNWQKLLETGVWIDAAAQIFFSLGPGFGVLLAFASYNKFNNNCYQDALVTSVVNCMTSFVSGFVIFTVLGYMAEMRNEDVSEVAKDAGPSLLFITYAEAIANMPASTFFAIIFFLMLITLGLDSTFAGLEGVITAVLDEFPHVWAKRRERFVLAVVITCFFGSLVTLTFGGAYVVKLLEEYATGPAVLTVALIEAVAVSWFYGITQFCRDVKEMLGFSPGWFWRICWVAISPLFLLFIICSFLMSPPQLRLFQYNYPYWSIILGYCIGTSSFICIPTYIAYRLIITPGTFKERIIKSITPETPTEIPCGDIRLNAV
Protocol: (§1) All transport experiments were carried out in HEK293 cells stably overexpressing human MATs or OCTs. […] All cells were regularly cultivated in DMEM supplemented with 10% (v/v) FCS, penicillin (100 U/mL) and streptomycin (100 μg/mL)and kept in culture for no longer than 30 passages.
(§2) For the uptake experiments, 300,000 cells were plated in poly-D-lysine precoated 24-well plates 48 h ahead of the transport experiment. On the day of experiment, cells were initially washed once with 37 °C pre-warmed HBSS+ (Hanks buffered salt solution supplemented with 10 mM HEPES) and subsequently incubated with the substrates dissolved in pre-warmed HBSS+ for exactly two minutes. Incubation was stopped by adding ice-cold HBSS+ followed by two washing steps. After this, cells were lysed with 80% acetonitrile containing 10 ng/mL milnacipran as internal standard for high-performance liquid chromatography coupled to tandem mass spectrometry (HPLC-MS/MS) analysis. For every experiment, two additional wells per cell line were lysed using RIPA buffer for protein quantification. Total protein was quantified using the bicinchoninic acid assay [42]. This was later used for normalization of the uptake data.
(§3) Intracellularly accumulated test substances were quantified by HPLC-MS/MS analysis using a Shimadzu Nexera HPLC system with a SIL-30AC autosampler, a CTO-20AC column oven, a LC-30AD pump, and a CBM-20A controller (Shimadzu, Kyoto, Japan). […] CBH HPLC column (100 × 3 mm inner dimension with 5 μM particle size; Sigma-Aldrich, Darmstadt, Germany) with a corresponding 10 × 3 mm guard column. Reversed phased chromatography was carried out using an ammonium acetate (NH4Ac) buffered aqueous mobile phase with isopropyl alcohol (IPA) as organic solvent. […] The order of elution of the enantiomers was obtained from available reference literature [43] or by applying enantiopure reference compounds to the chiral HPLC.
(§4) Detection was performed with an API 4000 tandem mass spectrometer (AB SCIEX, Darmstadt, Germany) operating in multiple-reaction-monitoring mode. Quantification was performed using the Analyst 1.6.2 software (AB SCIEX, Darmstadt, Germany) and quantified by comparison to standard curves with known concentrations.
(§5) All uptake data were normalized to protein content to account for variation in the number of seeded sells. Transporter-mediated net uptake was calculated by subtracting uptake into empty vector-transfected control cells from uptake into transporter-transfected cells. […] Vmax refers to the maximum transport velocity and Km is defined as the substance concentration required to reach half of vmax. The intrinsic clearance Clint was calculated as the quotient of vmax over Km.

[2] = target: NET (Homo sapiens, UniProt P23975); test: Stereoselective uptake into NET-overexpressing HEK293 cells; conditions: for Vmax ± SEM: net uptake; for Clint ± SEM: quotient of vmax over Km; for Stereoselectivity ClInt / Stereoselectivity Vmax: given as for (S) or for 2;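 on all read-outs here: intracellular enantiomers quantified in cell lysates by chiral HPLC-MS/MS after a 2 min substrate incubation, with uptake normalized to total cellular protein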
Sequence of NET (P23975 whole entry): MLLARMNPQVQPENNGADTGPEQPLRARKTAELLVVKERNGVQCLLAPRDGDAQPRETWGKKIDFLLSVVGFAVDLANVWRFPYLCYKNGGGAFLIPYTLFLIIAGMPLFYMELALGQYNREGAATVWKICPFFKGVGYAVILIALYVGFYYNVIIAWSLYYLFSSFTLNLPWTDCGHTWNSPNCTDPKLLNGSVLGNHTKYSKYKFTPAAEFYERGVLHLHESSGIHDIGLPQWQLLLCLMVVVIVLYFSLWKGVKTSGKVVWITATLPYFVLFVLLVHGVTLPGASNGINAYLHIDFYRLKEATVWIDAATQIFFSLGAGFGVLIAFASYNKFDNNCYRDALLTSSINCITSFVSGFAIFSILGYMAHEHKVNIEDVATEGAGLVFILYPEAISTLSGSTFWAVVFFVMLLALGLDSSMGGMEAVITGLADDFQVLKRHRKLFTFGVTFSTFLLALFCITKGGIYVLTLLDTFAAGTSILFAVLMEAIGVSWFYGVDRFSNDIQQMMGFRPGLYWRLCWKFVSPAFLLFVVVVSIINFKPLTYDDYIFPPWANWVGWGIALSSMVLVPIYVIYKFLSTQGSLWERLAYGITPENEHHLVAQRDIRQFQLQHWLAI
Protocol: as §1, §2
Intracellularly accumulated test substances were quantified by HPLC-MS/MS analysis using a Shimadzu Nexera HPLC system with a SIL-30AC autosampler, a CTO-20AC column oven, a LC-30AD pump, and a CBM-20A controller (Shimadzu, Kyoto, Japan). Stereoselective chromatography was carried out on a [sequence] CBH HPLC column (100 × 3 mm inner dimension with 5 μM particle size; Sigma-Aldrich, Darmstadt, Germany) with a corresponding 10 × 3 mm guard column. Reversed phased chromatography was carried out using an ammonium acetate (NH4Ac) buffered aqueous mobile phase with isopropyl alcohol (IPA) as organic solvent. […] The order of elution of the enantiomers was obtained from available reference literature [43] or by applying enantiopure reference compounds to the chiral HPLC. […] Given the structural similarity of the investigated substances and the fact that separation was performed on the same column with almost identical mobile phases, we assume that this order of elution for our compound set is always the (R)- before the (S)-enantiomer.
as §4
(§6) All uptake data were normalized to protein content to account for variation in the number of seeded sells. Transporter-mediated net uptake was calculated by subtracting uptake into empty vector-transfected control cells from uptake into transporter-transfected cells. Kinetic parameters were then determined after non-linear regression following the Michaelis–Menten equation (v = vmax × [S]/(Km + [S])) using GraphPad Prism (Version 5.01 for Windows, GraphPad Software, La Jolla, CA, USA). Vmax refers to the maximum transport velocity and Km is defined as the substance concentration required to reach half of vmax. The intrinsic clearance Clint was calculated as the quotient of vmax over Km.

[3] = target: DAT (Homo sapiens, UniProt Q01959); test: Stereoselective uptake into DAT-overexpressing HEK293 cells; conditions: for Clint ± SEM: quotient of vmax over Km; for Stereoselectivity ClInt / Stereoselectivity Vmax / Stereoselectivity Km: ratio between enantiomers; for Stereoselectivity ClInt / Stereoselectivity Vmax: given as for (S) or for 2; for Stereoselectivity Km: given as for (S) or for 2 (second-eluting);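 on all read-outs here: intracellular accumulation measured by chiral HPLC-MS/MS in stably transfected HEK293 cells, normalized to total protein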
Sequence of DAT (Q01959 whole entry): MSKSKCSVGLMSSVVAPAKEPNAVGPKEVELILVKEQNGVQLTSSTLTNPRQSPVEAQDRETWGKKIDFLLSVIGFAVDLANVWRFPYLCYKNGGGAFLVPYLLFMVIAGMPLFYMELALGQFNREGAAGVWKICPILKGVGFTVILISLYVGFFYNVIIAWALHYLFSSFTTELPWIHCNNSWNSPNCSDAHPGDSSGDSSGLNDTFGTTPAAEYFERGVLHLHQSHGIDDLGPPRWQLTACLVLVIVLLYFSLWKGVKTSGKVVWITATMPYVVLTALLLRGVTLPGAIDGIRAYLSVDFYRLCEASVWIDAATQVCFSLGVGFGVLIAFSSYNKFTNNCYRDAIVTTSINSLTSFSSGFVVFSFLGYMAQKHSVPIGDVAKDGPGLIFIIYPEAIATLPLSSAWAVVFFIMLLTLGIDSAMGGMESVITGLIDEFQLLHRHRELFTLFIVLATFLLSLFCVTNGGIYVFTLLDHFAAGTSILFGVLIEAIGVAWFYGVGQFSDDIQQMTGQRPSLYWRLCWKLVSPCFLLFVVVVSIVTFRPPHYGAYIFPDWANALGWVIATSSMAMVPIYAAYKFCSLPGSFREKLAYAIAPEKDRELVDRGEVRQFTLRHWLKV

[4] = target: T1, SERT; test: Stereoselective uptake into SERT-overexpressing HEK293 cells; conditions: for Clint ± SEM: SERT, quotient of vmax over Km;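 on all read-outs here: uptake into HEK293 cells stably expressing human SERT over 2 min, enantiomers measured in cell lysate by chiral HPLC-MS/MS, normalized to total protein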
Protocol: as §1, §2, §3, §4, §5

[5] = target: T2, OCT1 (Homo sapiens, UniProt O15245); test: Stereoselective uptake into OCT1-overexpressing HEK293 cells; conditions: for Vmax ± SEM: net uptake; for Clint ± SEM: quotient of vmax over Km;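 on all read-outs here: enantiomers quantified inside cells by chiral HPLC-MS/MS, uptake normalized to total protein from bicinchoninic acid assay, substrates applied in HBSS+ buffer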
T2 sequence (O15245 1-554): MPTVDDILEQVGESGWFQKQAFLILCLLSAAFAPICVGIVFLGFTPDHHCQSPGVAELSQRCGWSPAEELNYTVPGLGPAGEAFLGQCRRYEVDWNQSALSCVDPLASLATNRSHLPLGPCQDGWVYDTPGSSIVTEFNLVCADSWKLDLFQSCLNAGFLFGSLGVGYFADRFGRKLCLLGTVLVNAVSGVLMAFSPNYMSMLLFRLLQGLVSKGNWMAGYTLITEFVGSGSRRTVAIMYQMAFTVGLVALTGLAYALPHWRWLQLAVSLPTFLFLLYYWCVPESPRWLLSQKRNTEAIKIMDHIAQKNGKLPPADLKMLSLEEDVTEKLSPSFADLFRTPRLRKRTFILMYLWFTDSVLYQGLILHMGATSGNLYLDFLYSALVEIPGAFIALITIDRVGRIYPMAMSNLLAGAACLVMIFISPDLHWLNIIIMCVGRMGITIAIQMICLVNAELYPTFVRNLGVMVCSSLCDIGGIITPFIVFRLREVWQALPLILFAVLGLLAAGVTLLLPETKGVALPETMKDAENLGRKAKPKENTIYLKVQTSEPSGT

[6] = target: T3, OCT3 (Homo sapiens, UniProt O75751); test: Stereoselective uptake into OCT3-overexpressing HEK293 cells; conditions: for Clint ± SEM: quotient of vmax over Km; for Stereoselectivity Vmax: given as for (R) or for 1; for Stereoselectivity Km: given as for (R) or for 1 (first-eluting);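 on all read-outs here: intracellular accumulation in HEK293 cells measured by chiral HPLC-MS/MS after a 2 min substrate exposure at 37 °C, uptake normalized to total protein (bicinchoninic acid assay)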
T3 sequence (O75751 1-556): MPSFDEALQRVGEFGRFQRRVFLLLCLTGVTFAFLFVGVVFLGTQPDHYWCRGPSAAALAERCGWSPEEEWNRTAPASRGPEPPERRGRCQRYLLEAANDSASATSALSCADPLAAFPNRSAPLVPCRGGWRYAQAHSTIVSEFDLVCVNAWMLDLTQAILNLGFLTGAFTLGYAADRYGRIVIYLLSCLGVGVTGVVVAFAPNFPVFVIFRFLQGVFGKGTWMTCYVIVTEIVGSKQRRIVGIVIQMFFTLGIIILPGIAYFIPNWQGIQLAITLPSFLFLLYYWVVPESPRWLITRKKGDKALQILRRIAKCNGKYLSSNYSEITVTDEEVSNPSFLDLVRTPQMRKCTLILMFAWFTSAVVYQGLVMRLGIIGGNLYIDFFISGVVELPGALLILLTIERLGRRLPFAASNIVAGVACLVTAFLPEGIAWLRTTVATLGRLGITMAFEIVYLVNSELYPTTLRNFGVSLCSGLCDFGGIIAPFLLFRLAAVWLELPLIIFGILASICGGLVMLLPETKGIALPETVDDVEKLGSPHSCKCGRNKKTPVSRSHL

[7] = target: T4, OCT2 (Homo sapiens, UniProt O15244); test: Stereoselective uptake into OCT2 (wild-type)-overexpressing HEK293 cells; conditions: for Vmax ± SEM: net uptake; for Clint ± SEM: OCT2, quotient of vmax over Km
T4 sequence (O15244 1-555 S270A): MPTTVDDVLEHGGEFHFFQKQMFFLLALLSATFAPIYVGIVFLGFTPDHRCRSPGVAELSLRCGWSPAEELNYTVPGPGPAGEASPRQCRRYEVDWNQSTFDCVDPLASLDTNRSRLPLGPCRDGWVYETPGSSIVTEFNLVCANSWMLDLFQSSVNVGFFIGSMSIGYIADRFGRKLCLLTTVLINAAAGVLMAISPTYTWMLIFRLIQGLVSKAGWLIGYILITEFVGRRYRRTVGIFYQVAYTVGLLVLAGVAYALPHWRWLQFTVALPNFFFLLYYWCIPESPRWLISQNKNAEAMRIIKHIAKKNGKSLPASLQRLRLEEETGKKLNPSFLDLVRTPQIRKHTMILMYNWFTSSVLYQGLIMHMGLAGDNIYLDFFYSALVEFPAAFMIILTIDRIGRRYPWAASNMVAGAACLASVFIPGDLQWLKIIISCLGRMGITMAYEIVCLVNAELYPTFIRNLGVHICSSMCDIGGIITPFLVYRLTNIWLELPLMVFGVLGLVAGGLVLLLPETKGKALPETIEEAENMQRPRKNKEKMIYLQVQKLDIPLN
Protocol: as §1, §2
(§7) Intracellularly accumulated test substances were quantified by HPLC-MS/MS analysis using a Shimadzu Nexera HPLC system with a SIL-30AC autosampler, a CTO-20AC column oven, a LC-30AD pump, and a CBM-20A controller (Shimadzu, Kyoto, Japan). Stereoselective chromatography was carried out on a [sequence] CBH HPLC column (100 × 3 mm inner dimension with 5 μM particle size; Sigma-Aldrich, Darmstadt, Germany) with a corresponding 10 × 3 mm guard column. Reversed phased chromatography was carried out using an ammonium acetate (NH4Ac) buffered aqueous mobile phase with isopropyl alcohol (IPA) as organic solvent. […] The order of elution of the enantiomers was obtained from available reference literature [43] or by applying enantiopure reference compounds to the chiral HPLC. […] However, in every other case where the order of elution was available, the (R)-enantiomer eluted first. Given the structural similarity of the investigated substances and the fact that separation was performed on the same column with almost identical mobile phases, we assume that this order of elution for our compound set is always the (R)- before the (S)-enantiomer.
as §4, §6
(§8) HEK293 cells stably overexpressing wild-type or mutant OCT2 were incubated with 100 μM racemic substance for two minutes.

[8] = target: T5, OCT2 (Homo sapiens, UniProt O15244, S270A); test: as above; conditions: OCT2, ratio between enantiomers; for Stereoselectivity ClInt / Stereoselectivity Vmax: given as for (R) or for 1
T5 sequence (O15244 1-555 S270A): T4 sequence (O15244 1-555 S270A)
Protocol: as §1, §2, §7, §4, §6, §8

[9] = tested on: OCT2 A270S variant; test: Stereoselective uptake into OCT2 A270S variant-overexpressing HEK293 cells; conditions: OCT2 wild-type versus A270S, 100 μM racemic substance, two minutes;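 further: uptake into HEK293 cells stably overexpressing human OCT2 variants, intracellular enantiomers quantified by chiral HPLC-MS/MS and normalized to total protein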
Protocol: as §1, §2, §7, §4, §6, §8

[10] = HEK293 cells overexpressing human OCT1, racemic substrate, two minutes
[11] = OCT1, ratio between enantiomers, given as for (R) or for 1
[12] = OCT1, ratio between enantiomers, given as for (S) or for 2 (second-eluting)
[13] = OCT3, ratio between enantiomers
[14] = HEK293 cells overexpressing human OCT2, racemic substrate, two minutes
[15] = HEK293 cells overexpressing human NET, racemic substrate, two minutes
[16] = OCT1, ratio between enantiomers, given as for (S) or for 2
[17] = given as for (R) or for 1 (first-eluting)

CNCC(O)c1ccc(O)c(OC)c1 (single isomer, unassigned) [Metanephrine-2, Metanephrine]
Stereoselectivity ClInt ([1]; human): 1.01 fold
Saturable net uptake ([2]; NET, result in words): No saturable net uptake
Saturable net uptake ([3]; DAT, result in words): No saturable net uptake
Stereoselectivity Km [4]: 1.09 fold
Stereoselectivity Vmax [4]: 1.08 fold
Clint ± SEM [4]: 0.57 mL × g Protein^−1 × min^−1
Vmax ± SEM [5, 10]: 1018 pmol × mg Protein^−1 × min^−1
Clint ± SEM ([5]; OCT1): 6.97 mL × g Protein^−1 × min^−1
Stereoselectivity Vmax [5, 11]: 1.06 fold
Stereoselectivity Km [5, 12]: 1.09 fold
Stereoselectivity ClInt ([5]; human, 2 min): 1.16 fold
Clint ± SEM ([6]; OCT3): 26.0 mL × g Protein^−1 × min^−1
Stereoselectivity Vmax [6, 13]: 1.19 fold
Stereoselectivity ClInt ([6]; OCT3, ratio between enantiomers, given as for (R) or for 1 (also 1.00-fold for 1/2)): 1.00 fold
Stereoselectivity Km [6, 13]: 1.19 fold
Vmax ± SEM [7, 14]: 528 pmol × mg Protein^−1 × min^−1
Clint ± SEM [7]: 7.75 mL × g Protein^−1 × min^−1
Stereoselectivity ClInt [8]: 2.66 fold
Stereoselectivity Vmax [8]: 2.13 fold
Stereoselectivity Km ([8]; given as for (S) or for 2 (second-eluting)): 1.25 fold
Transporter selectivity ([9]; given as for A270S, listed as (S)-Metanephrine): 1.47 fold

NC[C@@H](O)c1ccc(O)c(O)c1 [(S)-Norepinephrine]
Stereoselectivity ClInt [1]: 1.78-fold for (R)
Vmax ± SEM [2, 15]: 362 ± 20 pmol × mg Protein^−1 × min^−1
Clint ± SEM ([2]; NET): 118.7 ± 46.0 mL × g Protein^−1 × min^−1
Stereoselectivity ClInt ([2]; NET, ratio between enantiomers): 1.05-fold for (S)
Stereoselectivity Vmax ([2]; NET, ratio between enantiomers): 1.38-fold for (S) **
Stereoselectivity Km ([2]; NET, ratio between enantiomers, given as for (S) or for 2 (second-eluting)): 1.32-fold for (S)
Km ([2]; read-out: Km ± SEM, HEK293 cells overexpressing human NET, racemic substrate, two minutes, net uptake minus empty vector control): 3.05 ± 1.01 µM
Clint ± SEM ([3]; DAT): 155.5 ± 21.4 mL × g Protein^−1 × min^−1
Stereoselectivity ClInt ([3]; DAT): 1.12-fold for (S)
Stereoselectivity Vmax ([3]; DAT): 1.47-fold for (S) ***
Stereoselectivity Km ([3]; DAT): 1.31-fold for (S)
Vmax ± SEM ([3]; HEK293 cells overexpressing human DAT, racemic substrate, two minutes, net uptake): 4524 ± 122 pmol × mg Protein^−1 × min^−1
Km ([3]; read-out: Km ± SEM, HEK293 cells overexpressing human DAT, racemic substrate, two minutes, net uptake minus empty vector control): 29.1 ± 3.2 µM
Stereoselectivity Km [4]: 1.01-fold for (R)
Stereoselectivity Vmax [4]: 1.79-fold for (R) **
Vmax ± SEM ([4]; HEK293 cells overexpressing human SERT, racemic substrate, two minutes, net uptake): 405 ± 42 pmol × mg Protein^−1 × min^−1
Clint ± SEM [4]: 2.31 ± 0.93 mL × g Protein^−1 × min^−1
Km ([4]; read-out: Km ± SEM, HEK293 cells overexpressing human SERT, racemic substrate, two minutes, net uptake minus empty vector control): 175 ± 52.2 µM
Vmax ± SEM [5, 10]: 1766 ± 258 pmol × mg Protein^−1 × min^−1
Clint ± SEM ([5]; OCT1): 0.48 ± 0.20 mL × g Protein^−1 × min^−1
Stereoselectivity ClInt [5, 16]: 1.06-fold for (S)
Stereoselectivity Vmax [5, 16]: 1.16-fold for (S)
Stereoselectivity Km [5, 12]: 1.09-fold for (S)
Km ([5]; read-out: Km ± SEM, HEK293 cells overexpressing human OCT1, racemic substrate, two minutes, net uptake minus empty vector control): 3.71 ± 1.01 mM
Vmax ± SEM ([6]; HEK293 cells overexpressing human OCT3, racemic substrate, two minutes, net uptake): 3662 ± 299 pmol × mg Protein^−1 × min^−1
Clint ± SEM ([6]; OCT3): 7.05 ± 2.73 mL × g Protein^−1 × min^−1
Stereoselectivity Vmax [6, 13]: 1.01-fold for (R)
Stereoselectivity Km [6, 13]: 1.07-fold for (R)
Stereoselectivity ClInt ([6]; OCT3, ratio between enantiomers, given as for (S) or for 2): 1.07-fold for (S)
Km ([6]; read-out: Km ± SEM, HEK293 cells overexpressing human OCT3, racemic substrate, two minutes, net uptake minus empty vector control): 519 ± 158 µM
Vmax ± SEM [7, 14]: 3042 ± 258 pmol × mg Protein^−1 × min^−1
Clint ± SEM [7]: 2.32 ± 0.71 mL × g Protein^−1 × min^−1
Km ([7]; read-out: Km ± SEM, HEK293 cells overexpressing human OCT2, racemic substrate, two minutes, net uptake minus empty vector control): 1.31 ± 0.291 mM
Stereoselectivity ClInt [8]: 1.64-fold for (R)
Stereoselectivity Vmax [8]: 2.17-fold for (R) **
Stereoselectivity Km [8, 17]: 1.32-fold for (R)
Transporter selectivity ([9]; given as for WT): 1.22 fold

NCC(O)c1cccc(O)c1 (single isomer, unassigned) [Norphenylephrine-2, Norphenylephrine]
Stereoselectivity ClInt ([1]; human): 1.53 fold
Vmax ± SEM [2, 15]: 531 pmol × mg Protein^−1 × min^−1
Clint ± SEM ([2]; NET): 230 mL × g Protein^−1 × min^−1
Stereoselectivity ClInt ([2]; NET, ratio between enantiomers): 1.21 fold
Stereoselectivity Vmax ([2]; NET, ratio between enantiomers): 1.25 fold
Clint ± SEM ([3]; DAT): 167 mL × g Protein^−1 × min^−1
Stereoselectivity ClInt ([3]; DAT): 1.29 fold
Stereoselectivity Vmax ([3]; DAT): 1.55 fold
Stereoselectivity Km ([3]; DAT): 1.20 fold
Stereoselectivity Km [4]: 1.20 fold
Stereoselectivity Vmax [4]: 1.27 fold
Clint ± SEM [4]: 1.83 mL × g Protein^−1 × min^−1
Clint ± SEM ([5]; OCT1): 3.84 mL × g Protein^−1 × min^−1
Stereoselectivity Vmax [5, 11]: 1.08 fold
Stereoselectivity Km ([5]; OCT1, ratio between enantiomers, given as for (R) or for 1 (first-eluting)): 1.03 fold
Stereoselectivity ClInt ([5]; human, 2 min): 1.05 fold
Clint ± SEM ([6]; OCT3): 3.32 mL × g Protein^−1 × min^−1
Stereoselectivity Vmax [6, 13]: 3.88 fold
Stereoselectivity Km [6, 13]: 1.17 fold
Stereoselectivity ClInt ([6]; human, 2 min): 3.32 fold
Clint ± SEM [7]: 26.07 mL × g Protein^−1 × min^−1
Stereoselectivity ClInt [8]: 1.40 fold
Stereoselectivity Vmax [8]: 2.19 fold
Stereoselectivity Km [8, 17]: 1.57 fold
Transporter selectivity ([9]; given as for WT, listed as (S)-Norphenylephrine): 1.12 fold
